± gives the expanded uncertainty stated by the source.
Assay: Molar enthalpy of transition or fusion
Conditions: Crystal 2; Adiabatic calorimetry

## O=P([O-])([O-])[O-].[Cs+].[Mg+2] [caesium-magnesium monophosphate]
  Molar enthalpy of transition or fusion: 0.0648 ± 0.00598 kcal/mol
